# Data reported in patent US4435583A, “2-Halo-substituted monic acid A useful as antibacterial compounds” (Beecham Group p.l.c., priority 1981, dated 1984).
# Columns and labels:
# Assay type in all cases: cell-based
# Bord. bronchiseptica B08 = experiment: MIC against veterinary bacteria; conditions: Bordetella bronchiseptica, B08, 18 h, Diagnostic Sensitivity Test Agar, 37° C., read-out: MIC
# Description: (§1) The values were determined using a two fold serial dilutions in Diagnostic Sensitivity Test Agar with an inoculum of 10^4 organisms and incubation for 18 hours at 37° C.
# Bord. bronchiseptica B09 = experiment: MIC against veterinary bacteria; conditions: Bordetella bronchiseptica, B09, 18 h, Diagnostic Sensitivity Test Agar, 37° C., read-out: MIC
# Description: as §1
# [1] = test system: Corynebacterium pyogenes CY1; experiment: MIC against veterinary bacteria; conditions: Rhodococcus (subgen. Prescottella) equi, Diagnostic Sensitivity Test Agar, 18 hours, 37° C., read-out: MIC
# Description: as §1
# E. coli E1 = experiment: MIC against veterinary bacteria; conditions: Escherichia coli, Diagnostic Sensitivity Test Agar, 18 hours, 37° C., read-out: MIC
# Description: as §1
# E. coli NCTC 10418 [2] = experiment: MIC against veterinary bacteria; conditions: Escherichia coli, NCTC10418, Diagnostic Sensitivity Test Agar, 18 hours, 37° C., read-out: MIC
# Description: as §1
# [3] = test system: Erysipelothrix rhusiopathiae NCTC 8163; experiment: MIC against veterinary bacteria; conditions: NCTC8163, Diagnostic Sensitivity Test Agar, 18 hours, 37° C., read-out: MIC
# Description: as §1
# Past. haemolytica PA5 = experiment: MIC against veterinary bacteria; conditions: Mannheimia haemolytica, PA5, 18 h, Diagnostic Sensitivity Test Agar, 37° C., read-out: MIC
# Description: as §1
# Past. multocida PA1 = experiment: MIC against veterinary bacteria; conditions: Pasteurella multocida, PA1, 18 h, Diagnostic Sensitivity Test Agar, 37° C., read-out: MIC
# Description: as §1
# Past. multocida PA2 = experiment: MIC against veterinary bacteria; conditions: Pasteurella multocida, PA2, 18 h, Diagnostic Sensitivity Test Agar, 37° C., read-out: MIC
# Description: as §1
# S. dublin S7 = experiment: MIC against veterinary bacteria; conditions: Salmonella enterica, Diagnostic Sensitivity Test Agar, 18 hours, 37° C., read-out: MIC
# Description: as §1
# S. typhimurium S18 = experiment: MIC against veterinary bacteria; conditions: Salmonella enterica, Diagnostic Sensitivity Test Agar, 18 hours, 37° C., read-out: MIC
# Description: as §1
# Staph. aureus 152 = experiment: MIC against veterinary bacteria; conditions: Staphylococcus aureus, 152, 18 h, Diagnostic Sensitivity Test Agar, 37° C., read-out: MIC
# Description: as §1
# Staph. aureus B4 = experiment: MIC against veterinary bacteria; conditions: Staphylococcus aureus, B4, 18 h, Diagnostic Sensitivity Test Agar, 37° C., read-out: MIC
# Description: as §1
# Staph. aureus Oxford [4] = experiment: MIC against veterinary bacteria; conditions: Staphylococcus aureus, 18 h, Diagnostic Sensitivity Test Agar, 37° C., read-out: MIC
# Description: as §1
# Strep. agalactiae SPA1 = experiment: MIC against veterinary bacteria; conditions: Streptococcus agalactiae, SPA1, 18 h, Diagnostic Sensitivity Test Agar, 37° C., read-out: MIC
# Description: as §1
# Strep. dysgalactiae SPD1 = experiment: MIC against veterinary bacteria; conditions: Streptococcus dysgalactiae, SPD1, 18 h, Diagnostic Sensitivity Test Agar, 37° C., read-out: MIC
# Description: as §1
# [5] = test system: Strep. suis (group D) SPS11; experiment: MIC against veterinary bacteria; conditions: Streptococcus suis, 18 h, Diagnostic Sensitivity Test Agar, 37° C., read-out: MIC
# Description: as §1
# Strep. uberis SPU1 = experiment: MIC against veterinary bacteria; conditions: Streptococcus uberis, SPU1, 18 h
# Description: as §1
# Bacillus subtilis 6633 = experiment: MIC against human bacteria; conditions: Bacillus subtilis, 6633, 18 h, nutrient agar, 5% chocolated horse blood, 37° C., read-out: MIC
# Description: (§2) The values were determined by serial dilutions in nutrient agar with 5% chocolated horse blood after incubations for 18 hours at 37° C.
# [6] = test system: Corynebacterium xerosis 9755; experiment: MIC against human bacteria; conditions: nutrient agar, 5% chocolated horse blood, 18 hours, 37° C., read-out: MIC
# Description: as §2
# E. coli ESS = experiment: MIC against human bacteria; conditions: Escherichia coli, 18 h, nutrient agar, 5% chocolated horse blood, 37° C., read-out: MIC
# Description: as §2
# E. coli NCTC 10418 [7] = experiment: MIC against human bacteria; conditions: Escherichia coli, NCTC10418, nutrient agar, 5% chocolated horse blood, 18 hours, 37° C., read-out: MIC
# Description: as §2
# [8] = test system: Haemophilus influenzae Q1; experiment: MIC against human bacteria; conditions: nutrient agar, 5% chocolated horse blood, 18 hours, 37° C., read-out: MIC
# Description: as §2
# K. aerogenes A = experiment: MIC against human bacteria; conditions: Klebsiella aerogenes, nutrient agar, 5% chocolated horse blood, 18 hours, 37° C., read-out: MIC
# Description: as §2
# [9] = test system: Neisseria catarrhalis 1502; experiment: MIC against human bacteria; conditions: Neisseria, 1502, 18 h, nutrient agar, 5% chocolated horse blood, 37° C., read-out: MIC
# Description: as §2
# P. mirabilis 889 = experiment: MIC against human bacteria; conditions: Proteus mirabilis, nutrient agar, 5% chocolated horse blood, 18 hours, 37° C., read-out: MIC
# Description: as §2
# Past. multocida 1633 = experiment: MIC against human bacteria; conditions: Pasteurella multocida, 1633, 18 h, nutrient agar, 5% chocolated horse blood, 37° C., read-out: MIC
# Description: as §2
# [10] = test system: Ps. aeruginosa NCTC 10662; experiment: MIC against human bacteria; conditions: Pseudomonas aeruginosa, NCTC10662, nutrient agar, 5% chocolated horse blood, 18 hours, 37° C., read-out: MIC
# Description: as §2
# Sarcina lutea 8340 = experiment: MIC against human bacteria; conditions: Micrococcus luteus, nutrient agar, 5% chocolated horse blood, 18 hours, 37° C., read-out: MIC
# Description: as §2
# Staph. aureus Oxford [11] = experiment: MIC against human bacteria; conditions: Staphylococcus aureus, 18 h, nutrient agar, 5% chocolated horse blood, 37° C., read-out: MIC
# Description: as §2
# Staph. aureus Russell = experiment: MIC against human bacteria; conditions: Staphylococcus aureus, 18 h, nutrient agar, 5% chocolated horse blood, 37° C., read-out: MIC
# Description: as §2
# Staph. aureus W2827 = experiment: MIC against human bacteria; conditions: Staphylococcus aureus, W2827, 18 h, nutrient agar, 5% chocolated horse blood, 37° C., read-out: MIC
# Description: as §2
# Strep. 2788-B = experiment: MIC against human bacteria; conditions: 18 h, nutrient agar, 5% chocolated horse blood, 37° C., read-out: MIC
# Description: as §2
# Strep. 641848-C = experiment: MIC against human bacteria; conditions: 18 h, nutrient agar, 5% chocolated horse blood, 37° C., read-out: MIC
# Description: as §2
# Strep. faecalis I = experiment: MIC against human bacteria; conditions: Enterococcus faecalis, nutrient agar, 5% chocolated horse blood, 18 hours, 37° C., read-out: MIC
# Description: as §2
# Strep. pneumoniae CN33 = experiment: MIC against human bacteria; conditions: Streptococcus pneumoniae, CN33, 18 h, nutrient agar, 5% chocolated horse blood, 37° C., read-out: MIC
# Description: as §2
# [12] = test system: Strep. pyrogenes R80/421-A; experiment: MIC against human bacteria; conditions: 18 h, nutrient agar, 5% chocolated horse blood, 37° C., read-out: MIC
# Description: as §2
compound,measurement,setting,value
"CC(CC1OCC(CC2OC2C(C)C(C)O)C(O)C1O)=C(F)C(=O)OCc1cccc([N+](=O)[O-])c1 [Example 4, 3-Nitrobenzyl 4-[5S-(2S,3S-epoxy-5S-hydroxy-4S-methylhexyl)-3R,4R-dihydroxytetrahydropyran-2S-yl]-2-fluoro-3-methylbut-2(Z)-enoate]",MIC,Bord. bronchiseptica B08,80 µg/mL
same,MIC,Bord. bronchiseptica B09,10 µg/mL
same,MIC,[1],80 µg/mL
same,MIC,E. coli E1,> 80 µg/mL
same,MIC,E. coli NCTC 10418 [2],> 80 µg/mL
same,MIC,[3],80 µg/mL
same,MIC,Past. haemolytica PA5,10 µg/mL
same,MIC,Past. multocida PA1,0.625 µg/mL
same,MIC,Past. multocida PA2,0.312 µg/mL
same,MIC,S. dublin S7,> 80 µg/mL
same,MIC,S. typhimurium S18,> 80 µg/mL
same,MIC,Staph. aureus 152,1.25 µg/mL
same,MIC,Staph. aureus B4,2.5 µg/mL
same,MIC,Staph. aureus Oxford [4],1.25 µg/mL
same,MIC,Strep. agalactiae SPA1,1.25 µg/mL
same,MIC,Strep. dysgalactiae SPD1,0.312 µg/mL
same,MIC,[5],5 µg/mL
same,MIC,Strep. uberis SPU1,0.156 µg/mL
same,MIC,Bacillus subtilis 6633,0.5 µg/mL
same,MIC,[6],> 100 µg/mL
same,MIC,E. coli ESS,1 µg/mL
same,MIC,E. coli NCTC 10418 [7],> 100 µg/mL
same,MIC,[8],0.5 µg/mL
same,MIC,K. aerogenes A,> 100 µg/mL
same,MIC,[9],0.5 µg/mL
same,MIC,P. mirabilis 889,> 100 µg/mL
same,MIC,Past. multocida 1633,2.5 µg/mL
same,MIC,[10],> 100 µg/mL
same,MIC,Sarcina lutea 8340,> 100 µg/mL
same,MIC,Staph. aureus Oxford [11],2.5 µg/mL
same,MIC,Staph. aureus Russell,2.5 µg/mL
same,MIC,Staph. aureus W2827,2.5 µg/mL
same,MIC,Strep. 2788-B,2.5 µg/mL
same,MIC,Strep. 641848-C,0.5 µg/mL
same,MIC,Strep. faecalis I,> 100 µg/mL
same,MIC,Strep. pneumoniae CN33,0.5 µg/mL
same,MIC,[12],0.5 µg/mL
